Data set [1] has as its target T1, Cytochrome P450 1A1 (Homo sapiens, UniProt P04798).
T1 sequence (P04798 whole entry): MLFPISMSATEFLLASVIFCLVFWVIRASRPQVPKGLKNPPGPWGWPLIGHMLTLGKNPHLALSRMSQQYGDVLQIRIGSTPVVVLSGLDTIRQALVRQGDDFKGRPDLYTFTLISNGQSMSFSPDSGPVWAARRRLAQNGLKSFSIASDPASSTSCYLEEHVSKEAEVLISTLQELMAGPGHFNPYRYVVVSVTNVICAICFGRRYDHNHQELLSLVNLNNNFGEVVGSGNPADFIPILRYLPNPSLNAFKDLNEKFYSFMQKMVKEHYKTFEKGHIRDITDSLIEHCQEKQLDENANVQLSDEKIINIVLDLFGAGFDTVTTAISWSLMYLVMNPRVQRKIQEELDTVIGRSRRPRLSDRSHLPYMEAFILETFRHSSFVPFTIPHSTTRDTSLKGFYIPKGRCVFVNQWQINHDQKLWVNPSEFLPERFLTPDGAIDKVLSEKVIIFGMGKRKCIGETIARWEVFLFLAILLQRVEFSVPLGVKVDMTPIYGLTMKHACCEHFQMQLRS
Kind of data set: Competitive inhibition of […] CYP1A1 expressed in supersomes coexpressing NADPH-CYP reductase using 7-Ethoxyresorufin as substrate measured every 5 mins for 30 mins in presence of NADPH by fluorescence assay. Type of data set: ADME. The settings on record: read-out: Ki(app).

Data set [2] has as its target T2, Cytochrome P450 1A2 (Homo sapiens, UniProt P05177).
T2 sequence (P05177 whole entry): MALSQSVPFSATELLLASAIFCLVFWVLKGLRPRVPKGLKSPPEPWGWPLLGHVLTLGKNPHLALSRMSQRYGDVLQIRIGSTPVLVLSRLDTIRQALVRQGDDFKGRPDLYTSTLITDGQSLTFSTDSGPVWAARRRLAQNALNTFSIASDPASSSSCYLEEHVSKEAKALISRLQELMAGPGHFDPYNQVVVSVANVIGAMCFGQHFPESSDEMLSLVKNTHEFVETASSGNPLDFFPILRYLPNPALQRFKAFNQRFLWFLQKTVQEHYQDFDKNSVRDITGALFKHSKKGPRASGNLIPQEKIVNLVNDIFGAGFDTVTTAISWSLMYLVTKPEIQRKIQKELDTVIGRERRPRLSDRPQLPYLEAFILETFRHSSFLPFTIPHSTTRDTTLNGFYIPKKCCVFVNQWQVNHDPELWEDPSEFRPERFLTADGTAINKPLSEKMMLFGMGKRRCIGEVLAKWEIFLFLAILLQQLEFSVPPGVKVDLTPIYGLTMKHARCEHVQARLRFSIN
Kind of data set: Inhibition of recombinant human CYP1A2 expressed in supersomes using 7-ethoxyresorufin O-deethylation as substrate after 5 mins in presence of NADP+ by spectrofluorimetric analysis. The data set is classed as ADME.

For data set [3], the target named is T1, Cytochrome P450 1A1. Kind of data set: Inhibition of recombinant human CYP1A1 expressed in supersomes using 7-ethoxyresorufin O-deethylation as substrate after 5 mins in presence of NADP+ by spectrofluorimetric analysis. Type of data set: ADME.
The target in data set [4] is T3, Cytochrome P450 1B1 (Homo sapiens, UniProt Q16678).
T3 sequence (Q16678 whole entry): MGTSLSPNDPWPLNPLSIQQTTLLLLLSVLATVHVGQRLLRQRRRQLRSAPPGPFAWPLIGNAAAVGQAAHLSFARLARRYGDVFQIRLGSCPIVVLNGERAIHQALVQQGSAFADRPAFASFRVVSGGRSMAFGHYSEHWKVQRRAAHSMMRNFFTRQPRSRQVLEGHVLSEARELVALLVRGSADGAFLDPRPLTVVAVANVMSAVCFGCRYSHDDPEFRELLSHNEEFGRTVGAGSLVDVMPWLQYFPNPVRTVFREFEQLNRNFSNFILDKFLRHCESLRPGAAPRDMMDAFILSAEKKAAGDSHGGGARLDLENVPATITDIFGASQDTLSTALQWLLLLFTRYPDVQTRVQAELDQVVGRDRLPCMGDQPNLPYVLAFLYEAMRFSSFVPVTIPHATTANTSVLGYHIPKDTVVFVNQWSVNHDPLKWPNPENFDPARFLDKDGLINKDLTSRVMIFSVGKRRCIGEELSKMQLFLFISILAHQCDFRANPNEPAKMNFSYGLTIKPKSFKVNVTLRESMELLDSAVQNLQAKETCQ
Nature of the data set: Inhibition of human CYP1B1 expressed in Escherichia coli DH5alpha coexpressing human NADPH P450 reductase using 7-ethoxyresorufin as substrate in presence of NADP+ by spectrofluorometeric analysis.

Data set [5] concerns the target T2, Cytochrome P450 1A2. Nature of the data set: Inhibition of CYP1A2 (unknown origin) expressed in Escherichia coli DH5alpha coexpressing human NADPH-P450 reductase using 7-Ethoxyresorufin as substrate up to 6 mins in presence of NADP+ by spectrofluorometric analysis. The data set is classed as ADME.
Data set [6] has as its target T3, Cytochrome P450 1B1. Nature of the data set: Inhibition of CYP1B1 (unknown origin) expressed in Escherichia coli DH5alpha coexpressing human NADPH-P450 reductase using 7-Ethoxyresorufin as substrate up to 6 mins in presence of NADP+ by spectrofluorometric analysis.
Data set [7] addresses T1, Cytochrome P450 1A1. Nature of the data set: Inhibition of CYP1A1 (unknown origin) expressed in Escherichia coli DH5alpha coexpressing human NADPH-P450 reductase using 7-Ethoxyresorufin as substrate up to 6 mins in presence of NADP+ by spectrofluorometric analysis. Type of data set: ADME.
For the next data set, the species on record is Homo sapiens. Kind of data set: Selectivity index, ratio of IC50 for human CYP1A1 expressed in Escherichia coli DH5alpha coexpressing human NADPH P450 reductase to IC50 for human CYP1B1 expressed in Escherichia coli DH5alpha coexpressing human NADPH P450 reductase.
Data set [8] concerns the target T3, Cytochrome P450 1B1. Kind of data set: Inhibition of recombinant CYP1B1 (unknown origin) expressed in Escherichia coli DH5alphaF'Iq coexpressing human NADPH-P450 reductase using E2-d4 as substrate after 10 mins in presence of NADP+.
The target in data set [9] is T1, Cytochrome P450 1A1. Nature of the data set: Inhibition of recombinant CYP1A1 (unknown origin) expressed in Escherichia coli DH5alphaF'Iq coexpressing human NADPH-P450 reductase using E2-d4 as substrate after 10 mins in presence of NADP+. The data set is classed as ADME.
The target of data set [10] is T3, Cytochrome P450 1B1. Kind of data set: Inhibition of recombinant CYP1B1 (unknown origin) expressed in supersomes coexpressing NADPH-CYP reductase using 7-ethoxyresorufin as substrate after 15 mins in presence of NADP+ by fluorescence spectrophotometric analysis.
For data set [11], the target named is T3, Cytochrome P450 1B1. Kind of data set: Inhibition of recombinant human CYP1B1 expressed in supersomes coexpressing NADPH-CYP reductase using 7-ethoxyresorufin as substrate after 15 mins in presence of NADP+ by Lineweaver-Burk plot analysis.
Data set [12] addresses T3, Cytochrome P450 1B1. Kind of data set: Inhibition of human CYP1B1 expressed in Escherichia coli DH5alpha coexpressing human NADPH P450 reductase using 7-ethoxyresorufin as substrate in presence of NADPH by fluorimetric analysis.
Data set [13] addresses T1, Cytochrome P450 1A1. Nature of the data set: Inhibition of human CYP1A1 expressed in Escherichia coli DH5alpha coexpressing human NADPH P450 reductase using 7-ethoxyresorufin as substrate in presence of NADPH by fluorimetric analysis. The data set is classed as ADME.
Data set [14] addresses T3, Cytochrome P450 1B1. Nature of the data set: Inhibition of recombinant human CYP1B1 expressed in Escherichia coli coexpressing human NADPH-cytochrome P450 reductase using 7-ethoxyresorufin as substrate by fluorescence spectrophotometric analysis.
The target of data set [15] is T3, Cytochrome P450 1B1. Kind of data set: Competitive inhibition of CYP1B1 (unknown origin) expressed in yeast microsomes using (-)benzo[a]pyrene-7R-trans-7,8-dihyrodiol (B[a]P-7,8-diol) as substrate.
The target in data set [16] is T1, Cytochrome P450 1A1. Nature of the data set: Inhibition of recombinant human CYP1A1 expressed in supersomes coexpressing NADPH-CYP reductase using 7-ethoxyresorufin as substrate after 15 mins in presence of NADP+ by Lineweaver-Burk plot analysis. The data set is classed as ADME.
Data set [17] deals with T3, Cytochrome P450 1B1. Kind of data set: Inhibition of recombinant CYP1B1 (unknown origin) expressed in supersomes coexpressing NADPH-CYP reductase using 7-ethoxyresorufin as substrate after 15 mins in presence of NADP+ by Lineweaver-Burk plot analysis.

We go through 17 compounds from ChEMBL document CHEMBL4033668, “Inhibitors of cytochrome P450 (CYP) 1B1” (Eur J Med Chem, 2017).

With `C=C(C)[C@@H]1CCC(C)=C[C@H]1c1c(O)cc(CCCCC)cc1O` [CANNABIDIOL], the Ki on Cytochrome P450 1A1 [1] turned out to be 150 nM. For `Cc1cc(Cl)c2c(c1N)C(=O)c1ccccc1C2=O`, the figures for the IC50 at Cytochrome P450 1A2 [2] and on Cytochrome P450 1A1 [3] were 530 nM and 400 nM, respectively. Turning to `O=c1cc(-c2ccccc2)oc2cc(O)ccc12` [7-HYDROXYFLAVONE], on Cytochrome P450 1B1 [4], the IC50 is 250 nM. On to `N#C[Se]Cc1ccccc1` [BENZYLSELENOCYANATE], for which the results for the IC50 at Cytochrome P450 1A2 [5], on Cytochrome P450 1B1 [6] and on Cytochrome P450 1A1 [7] were 200 to 1300 nM, 130 to 270 nM and 100 to 450 nM, respectively. For the compound `c1cc2ccc3cccc4ccc(c1)c2c34`, the Ratio IC50 in the data set listed under Homo sapiens stood at 20.5. Take `COc1cc2c(cc1O)[C@H]1CC[C@]3(C)[C@@H](O)CC[C@H]3[C@@H]1CC2`: the Ki at Cytochrome P450 1B1 [8] is 28000 nM; at Cytochrome P450 1A1 [9] it was 69000 nM. Turning to `N#C[Se]Cc1ccc(C[Se]C#N)cc1`, the concentration for half-maximal inhibition (IC50) at Cytochrome P450 1A2 [5] was 200 to 1300 nM; on Cytochrome P450 1B1 [6] it was 130 to 270 nM; on Cytochrome P450 1A1 [7], 100 to 450 nM.

With `O=c1cc(-c2ccccc2)oc2cccc(O)c12` [5-HYDROXYFLAVONE], the 50% inhibitory concentration (IC50) on Cytochrome P450 1B1 [4] came to 210 nM.

With `COc1cc2c(cc1O)CC[C@@H]1[C@@H]2CC[C@]2(C)[C@@H](O)CC[C@@H]12` [2-METHOXYESTRADIOL], the Ki is 36000 nM on Cytochrome P450 1B1 [8] and 88000 nM on Cytochrome P450 1A1 [9]. Turning to `O=c1c(O)c(-c2ccccc2)oc2ccccc12` [FLAVONOL], the half-inhibitory concentration (IC50) on Cytochrome P450 1B1 [4] turned out to be 90 nM.

Consider `COc1c(O)ccc2c1CC[C@@H]1[C@@H]2CC[C@]2(C)[C@@H](O)CC[C@@H]12`, for which, at Cytochrome P450 1B1 [8], the Ki worked out at 149000 nM. With `Oc1ccc(/C=C/c2cc(O)cc(O)c2)cc1` [RESVERATROL], the Ki at Cytochrome P450 1B1 [10] is 11200 nM; at Cytochrome P450 1B1 [11], 800 nM. Consider `C#Cc1cc2ccc3cccc4ccc(c1)c2c34`, for which the values for the IC50 on Cytochrome P450 1B1 [12] and at Cytochrome P450 1A1 [13] were 30 nM and 151 nM, respectively.

With `O=C1c2ccccc2C(=O)c2c1ccc(O)c2O` [ATHRAQUINONES A], on Cytochrome P450 1B1 [14], the Ki came to 500 nM.

As to `CC(C)=CCOc1c2ccoc2cc2oc(=O)ccc12` [ISOIMPERATORIN], the Ki at Cytochrome P450 1B1 [15] came to 6000 nM. For `COc1cc(O)cc(/C=C/c2ccc(O)cc2)c1`, the Ki at Cytochrome P450 1A1 [16] was 130 nM. As to `COc1ccccc1/C=C/c1ccc(SC)cc1`, the Ki was found to be 41 nM on Cytochrome P450 1B1 [17] and 300 nM on Cytochrome P450 1B1 [10].
